Assay [1] has as its target D(1B) dopamine receptor (Homo sapiens) (UniProt P21918). The experiment in a line: Positive allosteric modulator activity at human dopamine D5 receptor expressed in CHO-K1 cells assessed as fold change in dopamine EC50 for beta-arrestin2 recruitment at 50 uM incubated for 90 mins by PathHunter assay relative to control. In kind it is cell-based. The note with it: filed as positive allosteric modulator.

For assay [2] the target is unchanged. The experiment in a line: Positive allosteric modulator activity at human dopamine D5 receptor expressed in CHO-K1 cells assessed as fold change in dopamine Emax for beta-arrestin2 recruitment at 50 uM incubated for 90 mins by PathHunter assay relative to control. In kind it is cell-based. The note with it: filed as positive allosteric modulator.

Sequence of D(1B) dopamine receptor (Homo sapiens) (P21918 whole entry): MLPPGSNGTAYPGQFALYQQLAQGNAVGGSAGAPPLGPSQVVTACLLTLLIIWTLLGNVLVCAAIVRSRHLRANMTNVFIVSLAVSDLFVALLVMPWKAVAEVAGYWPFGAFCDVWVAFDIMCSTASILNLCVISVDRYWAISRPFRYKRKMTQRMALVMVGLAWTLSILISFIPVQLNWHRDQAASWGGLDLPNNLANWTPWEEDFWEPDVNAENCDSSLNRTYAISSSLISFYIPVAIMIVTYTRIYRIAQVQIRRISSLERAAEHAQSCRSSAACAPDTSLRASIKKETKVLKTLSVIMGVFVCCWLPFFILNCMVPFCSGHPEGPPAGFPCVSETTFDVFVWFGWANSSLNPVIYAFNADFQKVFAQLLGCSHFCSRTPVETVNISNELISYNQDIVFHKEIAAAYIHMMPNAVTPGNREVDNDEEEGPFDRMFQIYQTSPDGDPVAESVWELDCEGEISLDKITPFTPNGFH

Take `Cn1c2ccccc2c(=O)c2c(=O)n(-c3ccccc3)c(C3CCCCC3)nc21`: the fold change (FC) amounted to 2.84 in assay [1] and 1.5 in assay [2].

Source of the values: ChEMBL document CHEMBL4673311, “Development of pyrimidone D1 dopamine receptor positive allosteric modulators” (Bioorg Med Chem Lett, 2021).
